One experiment concerns the target BRD4-BD1 (Homo sapiens (Human), UniProt O60885). Nature of the experiment: bromoKdELECT assay for binding affinity to BRD4-BD1. The note with it: 11-point 3-fold dilution. How it is done: (§1) Compounds were tested using a bromoKdELECT assay. T7 phage strains displaying bromodomains were grown in parallel in 24-well blocks in an E. coli host derived from the BL21 strain. E. coli were grown to log-phase and infected with T7 phage from a frozen stock (multiplicity of infection=0.4) and incubated with shaking at 32° C. until lysis (90-150 minutes). The lysates were centrifuged (5,000×g) and filtered (0.2 μm) to remove cell debris. Streptavidin-coated magnetic beads were treated with biotinylated small molecule or acetylated peptide ligands for 30 minutes at room temperature to generate affinity resins for bromodomain assays. The liganded beads were blocked with excess biotin and washed with blocking buffer (SeaBlock (Pierce), 1% BSA, 0.05% Tween 20, 1 mM DTT) to remove unbound ligand and to reduce nonspecific phage binding. Binding reactions were assembled by combining bromodomains, liganded affinity beads, and test compounds in 1× binding buffer (17% SeaBlock, 0.33×PBS, 0.04% Tween 20, 0.02% BSA, 0.004% Sodium azide, 7.4 mM DTT). Test compounds were prepared as 1000× stocks in 100% DMSO. Kds were determined using an 11-point 3-fold compound dilution series with one DMSO control point. All compounds for Kd measurements are distributed by acoustic transfer (non-contact dispensing) in 100% DMSO. The compounds were then diluted directly into the assays such that the final concentration of DMSO was 0.09%. All reactions performed in polypropylene 384-well plates. Each was a final volume of 0.02 ml. The assay plates were incubated at room temperature with shaking for 1 hour and the affinity beads were washed with wash buffer (1×PBS, 0.05% Tween 20). The beads were then resuspended in elution buffer (1×PBS, 0.05% Tween 20, 2 μM non-biotinylated affinity ligand) and incubated at room temperature with shaking for 30 minutes. The bromodomain concentration in the eluates was measured by qPCR.

Another experiment concerns the target BRD4-BD2 (Homo sapiens (Human), UniProt O60885). Nature of the experiment: bromoKdELECT assay for binding affinity to BRD4-BD2. To be noted: 11-point 3-fold dilution. As to the method:
as §1

Experiment [1] has as its system T-Rex 293 cell line SC3 cells having increased expression of androgen receptor protein. As to the kind of experiment: Cellular growth inhibition, T-Rex 293 SC3 cells with increased androgen receptor expression (doxycycline), CellTiter-Glo. The experiment is classed as cell-based. To be noted: T-Rex 293 SC3 cells with increased androgen receptor expression (exposed to 10 ng/mL doxycycline), 72 hours, CellTiter-Glo; read-out: GI50. In a few lines: (§2)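 SC3, a T-Rex 293 clone with doxycycline-inducible wild-type androgen receptor, was seeded in phenol red-free DMEM with 10% charcoal-dextran FBS, with or without 10 ng/mL doxycycline. Compound added at 24 h (0.5% DMSO) for 72 h at 37° C. CellTiter-Glo 2.0 luminescence; GI50 from four-parameter fit.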

The subject of experiment [2] is T-Rex 293 cell line SC3 cells lacking increased expression of androgen receptor protein. Nature of the experiment: Cellular growth inhibition, T-Rex 293 SC3 cells lacking increased androgen receptor expression (no doxycycline), CellTiter-Glo. In kind it is cell-based. To be noted: T-Rex 293 SC3 cells lacking increased androgen receptor expression (not exposed to doxycycline), 72 hours, CellTiter-Glo; read-out: GI50. The method in brief:
as §2

Another experiment deals with VCaP cells. Nature of the experiment: Cellular growth inhibition assay for VCaP cells, CellTiter-Glo. In kind it is cell-based, human. The note with it: VCaP cells, 72 hours, CellTiter-Glo, read-out: GI50. The method in brief:
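GI50 values come from four-parameter curve fits of luminescence data normalized to a zero baseline. Compound, in medium with 0.5% DMSO, was added one day after plating and left for 72 h before CellTiter-Glo 2.0 addition.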

Experiment [3] concerns the target progesterone receptor ligand binding domain (LBD) (Homo sapiens (Human), UniProt P06401). Nature of the experiment: FP assay for binding affinity to progesterone receptor (PolarScreen Progesterone Receptor Competitor Assay). To be noted: GST-tagged PR LBD, Fluormone tracer, fluorescence polarization, 2 hours at room temperature. As to the method: Compounds were tested using the PolarScreen™ Progesterone Receptor Competitor Assay Kit (Life Technologies Cat #A15905 or a15906), as per the manufacturer's instructions. Briefly, GST-tagged PR LBD, Fluormone tracer, and compound were mixed and incubated for 2 hours at room temperature in the dark. Following incubation, the plates were spun at 3000×g for 30 seconds, then sealed with an optical adhesive cover, and fluorescence polarization was measured using appropriate excitation and emission filters with an EnVision Plate Reader (Perkin Elmer). Compound concentration vs. mP value were plotted in Prism (GraphPad). A four-parameter non-linear regression curve fit was applied to dose-response data to determine the half-maximal inhibitory concentration (IC50) for each test compound.

The subject of another experiment is T47D cells. Nature of the experiment: Cellular growth inhibition assay for T47D cells, CellTiter-Glo. In kind it is cell-based, human. To be noted: 72 hours treatment, CellTiter-Glo 2.0. In a few lines: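 Growth inhibition as GI50, fitted with four parameters to CellTiter-Glo luminescence after 72 h of compound exposure (0.5% DMSO). Cells were T47D, grown in insulin-supplemented (0.2 units/mL) DMEM with 10% FBS and treated one day post-seeding.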

Experiment [4] relates to T-Rex 293 cell line SC cells having increased expression of progesterone receptor isoform B protein. As to the kind of experiment: Cellular growth inhibition, T-Rex 293 SC cells with increased progesterone receptor isoform B expression (doxycycline), CellTiter-Glo. The experiment is classed as cell-based. To be noted: progesterone receptor isoform B induced with 10 ng/mL doxycycline, 72 hours. As to the method: (§3) The following types of cells were prepared for this experiment: (i) a T-Rex 293 cell line having increased expression of progesterone receptor isoform B protein due to exposure to doxycycline and (ii) a T-Rex 293 cell line lacking increased expression of progesterone receptor isoform B protein. Ability of the test compounds to inhibit proliferation of the foregoing cell types was evaluated according to the procedures set forth below.
(§4) The doxycycline-inducible progesterone receptor isoform B protein expressing cell line was established using the following protocol: T-Rex 293 cells were purchased from Invitrogen (Cat #R71007) and transfected using Lipofectamine 2000 with the wild-type progesterone receptor B protein sequence cloned into the pcDNA4/TO vector. Transfected cells were selected using 400 μg/mL Zeocin (Invitrogen Cat #R25001). Following selection, single clones were raised and maintained in Dulbecco's Modified Eagle Medium (DMEM) supplemented with 10% w/w Tetracycline-free fetal bovine serum (FBS) and 250 μg/mL Zeocin. Clones were analyzed for expression of progesterone receptor isoform B protein in the presence and absence of 10 ng/ml doxycycline (Sigma Cat #D9891), and a single doxycycline-inducible clone (hereinafter “SC”) was selected for use in downstream assays.
(§5) The SC cells were seeded on poly-D-lysine coated, black clear-bottom 384-well plates at 2500/well, in 25 μL Phenol Red Free Dulbecco's Modified Eagle Medium (DMEM) supplemented with 10% w/w charcoal-dextran treated fetal bovine serum (FBS) and 1% w/w pen-strep, with or without 10 ng/mL doxycycline. Pen-Strep is a commercially available mixture of penicillin G and streptomycin, which is used in mammalian cell culture media to prevent bacterial contamination. Phenol Red Free Dulbecco's Modified Eagle Medium (DMEM) supplemented with 10% w/w charcoal-dextran treated fetal bovine serum (FBS) and 1% w/w pen-strep, with or without 10 ng/mL doxycycline is herein referred to as Treatment Medium. Following seeding of cells in the plates, the plates were spun at 300×g for 30 seconds, then equilibrated to room temperature for 30 minutes, and then deposited in a humidified tissue culture incubator maintained at 37° C. with 5% CO2.
(§6) At 24 hours after seeding of the cells, dilutions of test compound were prepared in DMSO and dissolved in Treatment Medium, to achieve a final DMSO concentration of 0.5% w/w, thereby providing the Test Compound Solution. A 25 μL aliquot of the Test Compound Solution was added to cells in the well plates. An equal volume of a solution containing DMSO and Treatment Medium was used as a negative control. Following treatment of cells with Test Compound Solution or said equal volume of a solution containing DMSO and Treatment Medium, the plates were spun at 300×g for 30 seconds, and then left in an incubator for 72 hours.
(§7) At the end of the treatment duration, cell viability was quantified with CellTiter-Glo 2.0 reagent (Promega Cat #G9243). For this purpose, plates were equilibrated to room temperature for 30 minutes, and then 25 μL of CellTiter-Glo 2.0 reagent was added to cells in the plate wells. Plates were then agitated on a shaker for two minutes at 500 rpm and subsequently incubated at room temperature for 10 minutes. Following incubation, the plates were spun at 3000×g for 30 seconds, then sealed with an optical adhesive cover, and luminescence readings were measured with an EnVision Plate Reader (Perkin Elmer).
(§8) Data was normalized using zero luminescence for baseline. A four-parameter non-linear regression curve fit was applied to dose-response data in GraphPad Prism data analysis software to determine the half-maximal growth inhibitory concentration (GI50) for each test compound.

The subject of experiment [5] is T-Rex 293 cell line SC cells lacking increased expression of progesterone receptor isoform B protein. As to the kind of experiment: Cellular growth inhibition, T-Rex 293 SC cells lacking increased progesterone receptor isoform B expression (no doxycycline), CellTiter-Glo. The experiment is classed as cell-based. To be noted: T-Rex 293 SC cells not exposed to doxycycline, 72 hours. How it is done:
as §3, §4, §5, §6, §7, §8

Where two headings read alike, the source gives them in different places.

Chain of progesterone receptor ligand binding domain (LBD) (P06401 679-913): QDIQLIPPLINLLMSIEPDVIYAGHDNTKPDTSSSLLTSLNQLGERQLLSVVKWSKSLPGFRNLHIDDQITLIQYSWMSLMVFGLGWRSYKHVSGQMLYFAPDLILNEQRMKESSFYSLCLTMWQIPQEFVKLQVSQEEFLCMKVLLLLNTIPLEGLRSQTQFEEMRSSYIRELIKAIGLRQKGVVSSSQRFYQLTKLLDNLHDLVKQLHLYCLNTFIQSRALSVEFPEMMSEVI

In the case of `Cn1cc(-c2cc(S(=O)(=O)CCCCOC3CCN(c4ccc(C(=O)NC5CCC(Oc6ccc(C#N)c(Cl)c6)CC5)nn4)CC3)ccc2Oc2ccc(F)cc2F)c2cc[nH]c2c1=O` (stereo not shown) [I-92, N-[4-(3-chloro-4-cyano-phenoxy)cyclohexyl]-6-[4-[4-[4-(2,4-difluorophenoxy)-3-(6-methyl-7-oxo-1H-pyrrolo[2,3-c]pyridin-4-yl)phenyl]sulfonylbutoxy]-1-piperidyl]pyridazine-3-carboxamide], the Kd at BRD4-BD1 and on BRD4-BD2 was over 2500 nM each time. In addition, the GI50 in experiment [1] is under 500 nM; in experiment [2], over 3000 nM; in the experiment on VCaP cells (Homo sapiens), over 3000 nM. In addition, the half-maximal inhibitory concentration (IC50) in experiment [3] fell in the range of 50 to 500 nM.

For the molecule `Cn1cc(-c2cc(S(=O)(=O)CCCCCN3CCN(c4ccc(C(=O)N[C@H]5CC[C@H](Oc6ccc(C#N)c(Cl)c6)CC5)nn4)CC3)ccc2Oc2ccc(F)cc2F)c2cc[nH]c2c1=O` [I-94], the GI50 in experiment [1] was under 500 nM; in experiment [2], over 3000 nM; in the experiment with VCaP cells, under 500 nM; with T47D cells, 500 to 1500 nM. In addition, the IC50 in experiment [3] was 50 to 500 nM.

With `Cn1cc(-c2cc(C(C)(C)O)ccc2Oc2ccc(CCOC3CCN(c4ccc(C(=O)N[C@H]5CC[C@H](Oc6ccc(C#N)c(Cl)c6)CC5)nn4)CC3)cc2F)c2cc[nH]c2c1=O` [I-106], the GI50 was under 500 nM in experiment [1], under 500 nM in [2], 500 to 1500 nM in the experiment on VCaP cells (Homo sapiens) and under 500 nM in the experiment with T47D cells (Homo sapiens). The molecule also registered an IC50 in experiment [3] of 50 to 500 nM.

On to `Cn1cc(-c2cc(C(C)(C)O)ccc2Oc2cc(F)c(CCOC3CCN(c4ccc(C(=O)N[C@H]5CC[C@H](Oc6ccc(C#N)c(Cl)c6)CC5)nn4)CC3)cc2F)c2cc[nH]c2c1=O` [I-107], for which the GI50 (in experiment [1]; in experiment [2]; in the experiment on VCaP cells (Homo sapiens); in the experiment on T47D cells (Homo sapiens)) was under 500 nM in each case. This molecule also displayed an IC50 in experiment [3] of 50 to 500 nM.

As to `CC(C)N(C1CCN(c2ccc(C(=O)N[C@H]3CC[C@H](Oc4ccc(C#N)c(Cl)c4)CC3)nn2)CC1)C1CN(c2cccc(Oc3ccc(C(C)(C)O)cc3-c3cn(C)c(=O)c4[nH]ccc34)c2F)C1` [I-141], the GI50 was under 500 nM in experiment [1], 500 to 1500 nM in experiment [2], over 3000 nM in the experiment with VCaP cells and 500 to 1500 nM with T47D cells. The molecule further displayed an IC50 in [3] of 50 to 500 nM.

On to `Cn1cc(-c2cc(C(C)(C)O)ccc2Oc2ccc(N3CC(C4CCN(c5ccc(C(=O)N[C@H]6CC[C@H](Oc7ccc(C#N)c(Cl)c7)CC6)nn5)CC4)C3)cc2)c2cc[nH]c2c1=O` [I-148], for which the GI50 in experiment [1] was under 500 nM; in experiment [2] it was over 3000 nM; in the experiment with VCaP cells, under 500 nM; in experiment [4], under 500 nM; in [5] it was 500 to 1500 nM; in the experiment with T47D cells, under 500 nM.

As to `Cn1cc(-c2cc(C(C)(C)O)ccc2Oc2ccc(OCC3CCN(c4ccc(C(=O)NC5CCC(Oc6ccc(C#N)c(Cl)c6)CC5)nn4)CC3)cc2)ccc1=O` (stereo not shown) [I-235, N-[4-(3-chloro-4-cyano-phenoxy)cyclohexyl]-6-[4-[[4-[4-(1-hydroxy-1-methyl-ethyl)-2-(1-methyl-6-oxo-3-pyridyl)phenoxy]phenoxy]methyl]-1-piperidyl]pyridazine-3-carboxamide], the concentration for 50% growth inhibition (GI50) is under 500 nM in experiment [1], over 3000 nM in experiment [2], under 500 nM with VCaP cells (Homo sapiens) and 500 to 1500 nM in the experiment on T47D cells (Homo sapiens). This molecule also gave a half-maximal inhibitory concentration (IC50) in [3] of 50 to 500 nM.

Source of the values: patent publication US20250388575A1, “HETEROBIFUNCTIONAL COMPOUNDS AND METHODS OF TREATING DISEASE” (Halda Therapeutics OpCo, Inc., priority 2022, published 2025).
